Experimental data published in patent publication US20130190345A1, “MATRINIC ACID/MATRINE DERIVATIVES AND PREPARATION METHODS AND USES THEREOF” (priority 2010, published 2013).

Key:
[1] = test system: Hsc70; assay: Detection of Hsc70 gene expression level upon action of compound on 2.2.15 cells (real-time fluorescent quantified PCR); type: cell-based; parameters: Hsc70 mRNA / Hsc70 down-regulation rate (%): unit not given here; conditions: 2.2.15 cells; for Hsc70 inhibition rate (down-regulation of Hsc70 expression activity, expressed in relative OMT ratio): relative to OMT (= 1); for Hsc70 mRNA: down-regulation of liver cell Hsc70 gene
Description: 2.2.15 cells (purchased from Vertex Pharmaceutical Co., USA) in a number of 1×10^6 were inocubated to 6-well plate, cultured in a culture medium containing 10% fetal calf serum for 24 hr, the original culture medium was discarded, replaced with a culutre medium containing 400 μg/ml OMTR, which was used as control. Compounds were firstly dissolved in MEM to form 20 mg/ml mother liquid, which was diluted with culture medium when used and then applied to cells. The compounds of Examples 1-114 were separately used for treatment for 12, 24, 36 hr, then cells were harvested for extraction of RNA and DNA, then the changes of Hsc70 mRNA and HBV DNA were detected by real-time fluorescent quantified PCR.

[2] = test system: HCV; assay: Inhibition effects of compounds on HCV in Huh7.5 cultured cell after HCV infection; type: cell-based; conditions: HCV-infected Huh7.5 cells, 200 μg/mL, Western blotting (FIG. 7B)
Description: 1×10^5/ml Huh7.5 cells (purchased from Vertex Pharmaceutical Co., USA) were inoculated in an amount of 0.1 ml on 96-well culture plate, placed in an incubator with 37° C., 5% CO2 content and saturation humidity, and cultured for 24 h, HCV virus in 45 IU/cell was used to infect Huh7.5, different drug solutions (DM122) formulated with culture medium were added, and cell control and HCV infection control were set. Cultivation was continuously performed in the incubator with 37° C., 5% CO2 content and saturation humidity for 72 h, kit for RNA extraction was used to extract intracellular RNA, one-step qRT-PCR was used to determine intracellular contents of HCV and GAPDH RNA, and the inhibition effects of drug on HCV infection was analyzed. […] In comparison with the virus control group, the inhibition effects on HCV infection upon action of different drugs were analyzed. […] This experiment was repeated for 3 times, * indicated […] in comparison with control, ** indicated p<0.01 in comparison with control.

Compound	Hsc70 inhibition rate (down-regulation of Hsc70 expression activity, expressed in relative OMT ratio) [1]	Hsc70 mRNA [1]	other results
O=C(O)CCCC1C2CCCN3CCCC(CN1Cc1ccccc1)C23 (stereo not shown) [DM-108, N-benzylmatrinic acid]	1.25		
O=C(O)CCCC1NCC2CCC[N+]3([O-])CCCC1C23 (stereo not shown) [DM-1001, N-oxidized matrinic acid]	0.92		
O=C1CCC[C@@H]2[C@H]3CCCN4CCC[C@@H](CN12)[C@@H]34 [MT, Matrine]	−16		
Cc1cccc(OC(C)C(=O)N2CC3CCCN4CCCC(C34)C2CCCC(=O)O)c1 (stereo not shown) [DM-106, N-(2-m-methylphenoxy)propionylmatrinic acid]	1.67		
O=C(OC1CC(=O)N2C[C@@H]3CCCN4CCC[C@@H]([C@H]34)[C@H]2C1)c1ccccc1 (stereo partly shown) [Compound 6d, 13-benzoyloxy matrine]		51.0 ± 0.11	
COc1cccc(CN2CC3CCCN4CCCC(C2CCCC(=O)O)C34)c1 (stereo not shown) [DM-142, N-(3-methoxy)benzyl matrinic acid]	1.07		
CNC1CC(=O)N2C[C@@H]3CCCN4CCC[C@@H]([C@H]34)[C@H]2C1 (stereo partly shown) [Compound 7b, 13-methylaminomatrine]		40.1 ± 0.09	
O=C(O)CCCC1C2CCCN3CCCC(CN1CC1CC1)C23 (stereo not shown) [DM-115, N-cyclopropylmethyl matrinic acid]	−33		
O=C(O)CCCC1C2CCCN3CCCC(CN1C(=O)CCl)C23 (stereo not shown) [DM-104, N-chloroacetyl matrinic acid]	−7		
CCN1CC2CCCN3CCCC(C1CCCC(=O)O)C23 (stereo not shown) [DM-112, N-ethyl matrinic acid]	<10		
O=C1CCC[C@@H]2[C@H]3CCCN4CCC[C@@H](CN12)[C@@H]34 [Compound 2, reference compound]		52.4 ± 0.17	
O=C1C=CCC2C3CCCN4CCCC(CN12)C34 (stereo not shown) [Compound 3, reference compound]		21.6 ± 0.13	
O=C(O)CCCC1C2CCCN3CCCC(CN1C(=O)CO)C23 (stereo not shown) [DM-105, N-(2-hydroxyl)acetylmatrinic acid]	<10		
O=C(OC1CC2C3CCCN4CCCC(CN2C(=O)C1O)C34)c1ccc(F)c([N+](=O)[O-])c1 (stereo not shown) [Compound 9i, 14-hydroxyl-13-(4-fluoro-3-nitro)benzoyloxy matrine]		43.4 ± 0.08	
N,N-dimethyl oxymatrinic acid [DM-1111]	−0.25		
O=C(OC1CC2C3CCCN4CCCC(CN2C(=O)C1OC(=O)c1ccc(F)c([N+](=O)[O-])c1)C34)c1ccc(F)c([N+](=O)[O-])c1 (stereo not shown) [Compound 9d, 13,14-di(4-fluoro-3-nitro) benzoyloxy matrine]		30.8 ± 0.06	
O=C1CC(C[N+](=O)[O-])CC2C3CCCN4CCCC(CN12)C34 (stereo not shown) [Compound 7a, 13-nitromethyl matrine]		35.8 ± 0.09	
O=C1CCC[C@@H]2[C@H]3CCC[N+]4([O-])CCC[C@@H](CN12)[C@@H]34 (stereo partly shown) [Compound 1, reference compound]		55.0 ± 0.10	
O=C(O)CCCC1C2CCCN3CCCC(CN1S(=O)(=O)c1ccccc1)C23 (stereo not shown) [DM-109, N-benzenesulfonyl matrinic acid]	<10		
O=C(O)CCCC1C2CCCN3CCCC(CN1C(=O)C=Cc1ccccc1)C23 (stereo not shown) [DM-110, N-cinnamoyl matrinic acid]	<10		
α-interferon			anti-HCV activity (HCV nucleoprotein and Hsc70 protein levels) [2]: capable of inhibiting HCV replication
COC1CC(=O)N2CC3CCCN4CCCC(C34)C2C1 (stereo not shown) [Compound 6a, 13-methoxy matrine]		48.6 ± 0.16	
O=C(O)CCCC1C2CCC[N+]3([O-])CCCC(CN1CC1CC1)C23 (stereo not shown) [DM-1151, N-cyclopropylmethyl oxymatrinic acid]	0.52		

Compound	Hsc70 inhibition rate (down-regulation of Hsc70 expression activity, expressed in relative OMT ratio) [1]	Hsc70 mRNA [1]	other results
C[N+]1(C)CC2CCCN3CCCC(C23)C1CCCC(=O)[O-] (stereo not shown) [DM-111, N,N-dimethyl matrinic acid]	0.25		
O=C(O)CCCC1C2CCCN3CCCC(CN1C(=O)c1ccccc1)C23 (stereo not shown) [DM-107, N-benzoyl matrinic acid]	1.04		
COC1CC2C3CCCN4CCCC(CN2C(=O)C1OC)C34 (stereo not shown) [Compound 9a, 13,14-dimethoxy matrine]		39.3 ± 0.20	
O=C1CCC[C@@H]2[C@H]3CCC[N+]4([O-])CCC[C@@H](CN12)[C@@H]34 (stereo partly shown) [OMT, Oxymatrine, reference compound]	1		
13,14-diacetyloxy matrine [Compound 9c]		<10	
N-oxidized kurarinol [DM-2001]	−0.42		
O=C(O)CCCC1C2CCCN3CCCC(CN1CCO)C23 (stereo not shown) [DM-117, N-(2-hydroxyl)ethyl matrinic acid]	0.84		
O=CN1CC2CCCN3CCCC(C1CCCC(=O)O)C23 (stereo not shown) [DM-106a, N-formylmatrinic acid]	−54		
O=C1CC(OCc2ccccc2)CC2C3CCCN4CCCC(CN12)C34 (stereo not shown) [Compound 6c, 13-benzyloxy matrine]		24.7 ± 0.10	
Cc1ccc(S(=O)(=O)N2CC3CCCN4CCCC(C34)C2CCCC(=O)O)cc1 (stereo not shown) [DM-102, N-(4-methylbenzenesulfonyl) matrinic acid]	1.1		
CC(=O)OC1CC2C3CCCN4CCCC(CN2C(=O)C1O)C34 (stereo not shown) [Compound 9e, 14-hydroxyl-13-acetyloxy matrine]		37.1 ± 0.16	
O=C(CCl)OC1CC2C3CCCN4CCCC(CN2C(=O)C1O)C34 (stereo not shown) [Compound 9f, 14-hydroxyl-13-chloroacetyloxy matrine]		88.2 ± 0.21	
O=C1C=CCC2C3CCC[N+]4([O-])CCCC(CN12)C34 (stereo not shown) [Compound 4, oxidized sophocarpine]		15.3 ± 0.21	
CCCN1CC2CCCN3CCCC(C1CCCC(=O)O)C23 (stereo not shown) [DM-113, N-propyl matrinic acid]	<10		
O=C(O)CCCC1C2CCC[N+]3([O-])CCCC(CN1Cc1ccccc1)C23 (stereo not shown) [DM-1081, N-benzyl oxymatrinic acid]	1.26		
CC(=O)OC1CC2C3CCCN4CCCC(CN2C(=O)C1O)C34 (stereo not shown) [Compound 9j, 14-hydroxyl-13-acetyloxy matrine]		54.8 ± 0.21	
C=C(C)[C@H](CCC(C)(C)O)Cc1c(O)cc(OC)c2c1O[C@H](c1ccc(O)cc1O)CC2=O [DM-200, kurarinol]	0.81		
Cc1cccc(OCC(=O)N2CC3CCCN4CCCC(C34)C2CCCC(=O)O)c1 (stereo not shown) [DM-104a, N-(2-m-methylphenoxy)acetyl matrinic acid]	−2.98		
COc1ccc(CN2CC3CCC[N+]4([O-])CCCC(C2CCCC(=O)O)C34)cc1 (stereo not shown) [DM-1221, N-(4-methoxybenzyl) oxymatrinic acid]	1.34		
O=C(OC1CC2C3CCCN4CCCC(CN2C(=O)C1O)C34)c1ccccc1 (stereo not shown) [Compound 9h, 14-hydroxyl-13-benzoyloxy matrine]		34.5 ± 0.10	
O=C1C(OCc2ccccc2)C(OCc2ccccc2)CC2C3CCCN4CCCC(CN12)C34 (stereo not shown) [Compound 9b, 13,14-dibenzyloxy matrine]		45.4 ± 0.11	
CC(Cl)C(=O)OC1CC2C3CCCN4CCCC(CN2C(=O)C1O)C34 (stereo not shown) [Compound 9g, 14-hydroxyl-13-2-chloropropionyloxy matrine]		48.6 ± 0.11	anti-HCV activity (HCV nucleoprotein and Hsc70 protein levels) [2]: significant activity on anti-HCV
